Values of other authors in patent US20060222709A1 (AGI Therapeutics Research Ltd., priority 2005, published 2006).
Each block holds one compound with its values, some of them ahead of it.

Tests used:
[1] = system: women patients with IBS-C; conditions: 6 mg twice daily
[2] = system: patients with chronic constipation; conditions: two trials

prevalence of diarrhea (treated diabetes patients (Bytzer 2001)): 20%
Structure (SMILES): CN(C)C(=N)N=C(N)N [metformin, dimethylbiguanide]
acute, reversible adverse effects, mainly of gastrointestinal tract origin, patients affected (human, in vivo): up to 20%

Structure (SMILES): CCCCCNC(=N)N/N=C/c1c[nH]c2ccc(OC)cc12.O=C(O)/C=C\C(=O)O [tegaserod, 3-(5-methoxy-1H-indol-3-ylmethylene)-N-pentylcarbazimidamide hydrogen maleate]
global and individual symptoms [1]: effectively improves global and individual symptoms

Structure (SMILES): OC[C@H]1O[C@@H](O[C@@H]2[C@@H](CO)OC(O)(CO)[C@H]2O)[C@H](O)[C@@H](O)[C@H]1O (mixture of isomers) [lactulose]
stool frequency and consistency versus placebo [2]: more effective than placebo
